Reference: patent publication US20160084855A1, “Compositions and Methods for Modulation and Detection of Immune and Inflammatory Responses” (UNIVERSITY OF CONNECTICUT, priority 2013, published 2016)
“Also recorded” adds a separate entry of the source.

Experiments:
TLR4 = conditions: Gomi et al., J Immunol. 2002; cited from earlier work
CCL2 = test: Serum CCL2 by ELISA after injection of lipid into mice; format: in vivo, mouse; conditions: four hours
Description: Lipid 654 was injected intraperitoneally (i.p.) into mice and three to four hours later serum was drawn and analyzed for levels of CCL2 via ELISA. Both female wild type (WT) C57BL/6 mice and female TLR2-deficient (TLR2−/−) mice were injected i.p. with either DMSO (vehicle control; VC) or Lipid 654. Three to four hours later, serum was drawn from these mice and analyzed for levels of CCL2.
In vivo assays: Wild-type (WT) C57BL/6 mice or TLR2^−/− mice were injected intraperitoneally (i.p.) or intravenously (i.v.) with vehicle control or specific lipids. Four hours later, blood samples were obtained from mice, and the mice were euthanized. Serum was separated from the blood samples and frozen at −80° C. until analysis. Serum samples were analyzed for levels of CCL2 by ELISA (R&D, Minneapolis, Minn.).
Lipid 654 was injected i.p. in 50% DMSO and lipid 430 was injected i.v. in phosphate-buffered saline (PBS). WT female C57BL/6 mice and TLR2^−/− female mice were injected with either vehicle, lipid 654, or lipid 430. Four hours later, serum was recovered from these mice and analyzed for levels of CCL2. […] The same was true for lipid 430.

human TLR2 = biological target: T1, human TLR2 (Homo sapiens, UniProt O60603); test: HEK293 cells transfected with human TLR2, CD14 (MD-2) and SEAP reporter; format: cell-based; conditions: for HEK cell activation versus DMSO vehicle (stimulated/nonstimulated ratio): 24 h, MMP 0.2 μg/ml, LTA 2 μg/ml, lipid 654 and lipid 430 0.69 μg/ml, P<0.05; for Activation of human TLR2 in HEK cells: HPLC fractions of P. gingivalis total lipids; for Effect of pretreatment with anti-human TLR2 antibody on HEK-TLR2 cell activation: antibody 10 μg/mL 1 hour, MMP 0.1 μg/ml, LTA 1 μg/ml, lipid 430 and lipid 654 0.69 μg/ml
T1 construct: host or cells: HEK293
T1 sequence (O60603 21-784): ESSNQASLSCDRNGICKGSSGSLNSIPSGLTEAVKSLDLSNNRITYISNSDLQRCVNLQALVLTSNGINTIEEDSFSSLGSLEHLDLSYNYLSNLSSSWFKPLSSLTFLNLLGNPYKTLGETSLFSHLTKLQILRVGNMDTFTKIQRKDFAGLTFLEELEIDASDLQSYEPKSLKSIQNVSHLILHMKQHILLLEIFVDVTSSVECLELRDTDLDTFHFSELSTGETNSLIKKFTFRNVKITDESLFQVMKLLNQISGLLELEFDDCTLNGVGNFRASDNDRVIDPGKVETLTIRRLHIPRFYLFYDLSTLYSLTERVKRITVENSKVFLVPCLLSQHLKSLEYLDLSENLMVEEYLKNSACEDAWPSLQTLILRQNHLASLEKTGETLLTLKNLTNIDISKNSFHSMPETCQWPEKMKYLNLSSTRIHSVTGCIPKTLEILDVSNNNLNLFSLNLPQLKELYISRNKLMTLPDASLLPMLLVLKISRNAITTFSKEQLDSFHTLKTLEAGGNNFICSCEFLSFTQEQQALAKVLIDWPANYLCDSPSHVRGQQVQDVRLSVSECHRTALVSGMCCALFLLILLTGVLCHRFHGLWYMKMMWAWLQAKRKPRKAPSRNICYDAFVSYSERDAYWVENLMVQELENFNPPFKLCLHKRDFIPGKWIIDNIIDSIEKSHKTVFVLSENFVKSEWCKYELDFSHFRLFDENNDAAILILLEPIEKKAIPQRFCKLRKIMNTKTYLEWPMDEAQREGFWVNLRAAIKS
T1 sequence (Q9Y2C9 32-796 partner): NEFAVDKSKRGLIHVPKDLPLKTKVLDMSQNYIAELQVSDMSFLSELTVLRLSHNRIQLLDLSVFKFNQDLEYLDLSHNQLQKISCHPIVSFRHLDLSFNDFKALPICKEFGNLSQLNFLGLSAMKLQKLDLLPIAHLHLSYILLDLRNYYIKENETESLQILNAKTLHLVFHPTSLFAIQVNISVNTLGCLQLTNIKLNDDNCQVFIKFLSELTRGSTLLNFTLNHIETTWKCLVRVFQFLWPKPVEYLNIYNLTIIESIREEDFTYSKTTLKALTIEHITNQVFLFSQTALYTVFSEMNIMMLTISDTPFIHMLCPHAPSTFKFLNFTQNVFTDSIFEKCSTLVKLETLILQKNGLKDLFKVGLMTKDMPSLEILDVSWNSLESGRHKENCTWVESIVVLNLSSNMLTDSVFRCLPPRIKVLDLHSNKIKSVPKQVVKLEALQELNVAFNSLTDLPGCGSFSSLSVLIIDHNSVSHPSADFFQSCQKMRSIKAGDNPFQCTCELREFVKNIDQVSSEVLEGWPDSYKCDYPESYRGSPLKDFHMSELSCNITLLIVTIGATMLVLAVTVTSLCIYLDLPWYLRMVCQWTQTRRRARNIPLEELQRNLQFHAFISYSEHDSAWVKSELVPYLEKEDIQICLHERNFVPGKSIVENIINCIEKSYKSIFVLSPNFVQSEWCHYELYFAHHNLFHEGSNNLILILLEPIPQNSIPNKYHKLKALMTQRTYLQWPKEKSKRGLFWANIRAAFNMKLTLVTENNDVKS
From the text: In vitro effects, human cells: HEK293 cells (human embryonic kidney cells) transfected with the human TLR2 and SEAP (secreted embryonic alkaline phosphatase) genes, were used to assay the function of Lipid 654 in vitro. The HEK cells, which naturally express variable levels of TLRs 1, 3, 5, 6, 7 and 9, were also transfected with the gene for CD14. CD14 is a co-receptor that enhances TLR2 responses. Additionally, TLR2 responses are most often mediated via another co-receptor which, in most cases, is either TLR1 or TLR6. The SEAP reporter gene is under the control of the IFN-β minimal promoter fused to five NF-κB and AP-1-binding sites. Stimulation with a TLR2 ligand activates NF-κB and AP-1 which induce the production of SEAP which is then quantitated as a colorimetric change in the presence of a detection medium.
Lipid 654, solubilized in 50% DMSO in water, and two documented TLR2 agonists, MMP and lipotechoic acid (LTA), were incubated for 24 hours with the HEK cells in the presence or absence of antibodies to TLR2 and TLR6.
(§1) Cell lines and assays: Human embryonic kidney cells (HEK293 cells), either nontransfected or transfected with human TLR2 or human TLR4 and stably expressing MD-2 and CD14, were purchased from InvivoGen. Cells were cultured in Dulbecco's modified Eagle's medium (DMEM; Gibco) containing 4.5 g/liter 1-glucose and 10% fetal bovine serum (FBS). The activities of specific TLR agonists were measured through a colorimetric assay for the secretory embryonic alkaline phosphatase (SEAP), a reporter gene that is linked to NF-κB activation. Measurement of SEAP activity using the Quanti-blue substrate (InvivoGen) after TLR agonist treatment was carried out in test medium (DMEM, 10% FBS) without antibiotics. NF-κB activation was expressed as a response ratio for each stimulus relative to SEAP activity in unstimulated (vehicle control) cells. For in vitro testing, all lipid preparations tested were solubilized in a 50% mixture of dimethyl sulfoxide (DMSO)-water (approximately 1.11% DMSO in the final culture medium).
To determine the ability of P. gingivalis lipids to activate human cells via TLRs, the total lipids of P. gingivalis were fractionated by HPLC, and an aliquot of each fraction was dried and dissolved in 50% DMSO in water. Each HPLC fraction was then tested for cell activation by using HEK293 cells stably transfected with human TLR2, CD14, MD-2, and SEAP genes. In addition, the HEK293 cells naturally express variable levels of TLRs 1, 3, 5, 6, 7, and 9. The SEAP reporter gene is under the control of the beta interferon minimal promoter fused to five NF-κB and AP-1 binding sites. Stimulation with a TLR2 ligand activates NF-κB and AP-1, which induces the production of SEAP. SEAP is then quantitated via a colorimetric change in medium samples following the addition of a suitable enzyme substrate. Using this cell screen for human TLR2 engagement, each HPLC lipid fraction was screened for cell activation.

human TLR4 = biological target: T2, human TLR4 (Homo sapiens, UniProt O00206+Q9Y6Y9); test: HEK293 cells transfected with human TLR4, CD14 (MD-2) and SEAP reporter; format: cell-based; conditions: 24 hours; for Activation of TLR4-expressing HEK293 cells: Example 23, lipids 0.69 μg/ml, LPS 1 μg/ml
T2 construct: host or cells: HEK293
T2 sequence (O00206 24-839): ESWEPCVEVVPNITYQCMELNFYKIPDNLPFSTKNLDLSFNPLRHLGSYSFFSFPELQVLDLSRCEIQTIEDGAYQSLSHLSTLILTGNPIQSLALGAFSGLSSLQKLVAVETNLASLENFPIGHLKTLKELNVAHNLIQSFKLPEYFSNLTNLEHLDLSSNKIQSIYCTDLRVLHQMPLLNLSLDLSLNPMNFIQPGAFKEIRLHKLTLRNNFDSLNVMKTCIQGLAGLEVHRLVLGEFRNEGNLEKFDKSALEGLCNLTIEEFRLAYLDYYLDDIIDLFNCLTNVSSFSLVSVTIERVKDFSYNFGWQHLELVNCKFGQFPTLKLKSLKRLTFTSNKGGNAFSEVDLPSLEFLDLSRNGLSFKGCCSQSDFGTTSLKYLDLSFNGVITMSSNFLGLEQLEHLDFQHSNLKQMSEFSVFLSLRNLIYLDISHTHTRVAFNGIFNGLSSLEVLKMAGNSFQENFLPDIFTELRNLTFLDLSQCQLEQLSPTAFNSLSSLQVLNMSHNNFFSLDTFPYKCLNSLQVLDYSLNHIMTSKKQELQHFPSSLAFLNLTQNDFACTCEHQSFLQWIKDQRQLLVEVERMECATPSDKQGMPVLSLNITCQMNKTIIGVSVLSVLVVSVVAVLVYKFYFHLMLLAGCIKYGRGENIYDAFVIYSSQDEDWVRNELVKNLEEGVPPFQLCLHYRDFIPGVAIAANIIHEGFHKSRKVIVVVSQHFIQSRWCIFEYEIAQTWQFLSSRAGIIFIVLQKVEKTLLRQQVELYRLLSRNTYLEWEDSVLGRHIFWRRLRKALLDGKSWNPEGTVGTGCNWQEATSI
T2 sequence (Q9Y6Y9 17-160 limits assumed): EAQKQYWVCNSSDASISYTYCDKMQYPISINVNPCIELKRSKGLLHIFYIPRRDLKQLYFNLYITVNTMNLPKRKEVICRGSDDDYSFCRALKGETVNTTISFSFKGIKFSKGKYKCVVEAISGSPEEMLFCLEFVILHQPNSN
Description: as §1
To test whether lipid 654 and lipid 430 can function as ligands for TLR4, HEK293 cells transfected with the human TLR4, CD14, and MD-2 genes but not expressing TLR2 were utilized.

TLR2 = biological target: T3, TLR2 (Mus musculus, UniProt Q9QUN7); test: TLR2 engagement in mouse bone cells; format: cell-based
T3 construct: endogenous in cells; host or cells: mouse bone cells
T3 sequence (Q9QUN7 25-784): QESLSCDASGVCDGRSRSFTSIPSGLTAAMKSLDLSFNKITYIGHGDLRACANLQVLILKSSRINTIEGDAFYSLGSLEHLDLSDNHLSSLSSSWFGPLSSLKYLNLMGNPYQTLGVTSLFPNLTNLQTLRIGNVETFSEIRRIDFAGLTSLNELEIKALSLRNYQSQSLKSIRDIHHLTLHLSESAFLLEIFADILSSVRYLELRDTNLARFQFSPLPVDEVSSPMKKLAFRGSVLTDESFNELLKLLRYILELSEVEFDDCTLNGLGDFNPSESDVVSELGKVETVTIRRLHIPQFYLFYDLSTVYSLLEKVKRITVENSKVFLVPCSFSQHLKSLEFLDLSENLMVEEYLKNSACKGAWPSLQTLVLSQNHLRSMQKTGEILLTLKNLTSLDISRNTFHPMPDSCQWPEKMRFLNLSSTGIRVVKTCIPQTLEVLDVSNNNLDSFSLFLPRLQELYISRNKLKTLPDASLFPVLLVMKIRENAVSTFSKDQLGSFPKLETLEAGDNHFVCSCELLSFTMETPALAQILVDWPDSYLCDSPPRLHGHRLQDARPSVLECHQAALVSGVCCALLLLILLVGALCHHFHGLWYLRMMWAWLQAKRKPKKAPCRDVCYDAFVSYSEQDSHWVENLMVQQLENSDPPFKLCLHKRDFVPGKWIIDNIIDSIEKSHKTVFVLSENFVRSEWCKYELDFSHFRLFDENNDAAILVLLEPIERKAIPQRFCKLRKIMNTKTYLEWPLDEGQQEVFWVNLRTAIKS
T3 sequence (Q9EPW9 28-795 partner): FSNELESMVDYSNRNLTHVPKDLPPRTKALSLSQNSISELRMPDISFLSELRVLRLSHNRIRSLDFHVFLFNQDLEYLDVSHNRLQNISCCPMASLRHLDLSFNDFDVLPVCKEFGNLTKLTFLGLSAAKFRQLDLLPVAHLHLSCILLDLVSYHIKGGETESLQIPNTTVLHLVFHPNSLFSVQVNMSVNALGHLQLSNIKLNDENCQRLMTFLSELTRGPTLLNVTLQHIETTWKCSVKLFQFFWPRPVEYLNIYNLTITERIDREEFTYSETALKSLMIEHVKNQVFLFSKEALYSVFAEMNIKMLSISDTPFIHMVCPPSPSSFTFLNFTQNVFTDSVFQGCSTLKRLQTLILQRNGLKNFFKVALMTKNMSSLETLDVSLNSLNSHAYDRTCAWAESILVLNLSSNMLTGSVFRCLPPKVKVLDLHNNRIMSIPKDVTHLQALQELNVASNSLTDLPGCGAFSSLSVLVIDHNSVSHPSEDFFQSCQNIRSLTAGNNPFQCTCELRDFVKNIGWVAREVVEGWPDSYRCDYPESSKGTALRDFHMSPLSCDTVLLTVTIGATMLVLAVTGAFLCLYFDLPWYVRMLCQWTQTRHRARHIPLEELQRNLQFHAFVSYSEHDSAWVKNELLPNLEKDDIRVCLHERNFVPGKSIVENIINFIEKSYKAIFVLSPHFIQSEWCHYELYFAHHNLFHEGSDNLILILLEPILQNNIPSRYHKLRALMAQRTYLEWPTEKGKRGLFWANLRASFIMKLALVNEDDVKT
From the text: Phospholipase A2 enzymes are recovered in all tissues and levels of this enzyme are increased in association with virtually all chronic inflammatory diseases. In fact, phospholipase A2 inhibitors are being used to treat atherosclerosis, multiple sclerosis, and a variety of other conditions. Phospholipase A2 hydrolyzes glycerol phospholipids so that the ester linked fatty acid in the #2 carbon position of glycerol is released, but only for a glycerol ester linkage in the L enantiomeric configuration. Phospholipase A2 will not hydrolyze fatty acid linked in the D enantiomeric form of glycerol.

female SJL mice with EAE = test: EAE by transfer of PLP-stimulated lymph node lymphocytes into SJL mice; format: in vivo, mouse; conditions: 2 ng of Lipid 654 intravenously on day of cell transfer; 30 days; 5 mice; p=0.0006
Description: Female SJL mice were injected intra-peritoneally with 30×10^6 4-day in-vitro-activated proteolipid protein (PLP)-stimulated lymph node lymphocytes and on the same day injected intravenously with either phosphate buffered saline (PBS) (vehicle control=“VC”) or 2 ng of Lipid 654. Mice were followed for 30 days for development of EAE and scored as 1=tail paralysis; 2=abnormal gait; 3=paralyzed hind legs; 4=paralyzed front and hind legs; 5=death. The results in FIG. 21 depict the daily mean for 5 mice injected with the VC and 5 mice injected with Lipid 654. […] Thus, MS patients can be treated directly with Lipid 654 or with commensal bacteria that produce increased amounts of Lipid 654.

Description for phospholipase A2 (PLA2): Aliquots of the enriched 654 (10 μg each) were dispensed into conical vials and the residual solvent was dried. Tris-buffered (10 mM) saline containing either no calcium/0.01% sodium EDTA, 2.5 mM calcium, or 10 mM calcium was added to specific vials (1.0 ml) and the solution was sonicated for 30 seconds. Specific vials were then supplemented with either porcine pancreatic phospholipase A2 (PP PLA2), honey bee venom PLA2, bovine liver nonspecific esterase (BLE), phospholipase C (PLC), lipoprotein lipase (LL), phospholipase D (PLD), or cobra venom factor (CVF). PP PLA2 or HBV PLA2 was added at a concentration of 96 or 120 U/ml, respectively. All other lipase preparations were used at this or a higher concentration. Controls were dissolved in the indicated Tris buffer but were not supplemented with enzyme. Each vial was stirred for 3 days after which the hydrolyzate was acidified with 100 ul of glacial acetic acid and extracted three times with chloroform. The pooled extracts were dried, reconstituted in HPLC solvent, and evaluated for recovery of Lipid 654 and Lipid 430 using MRM-MS as previously described. Two different isolates of Lipid 654, indicated as (A) and (B), were compared for hydrolysis by either porcine pancreatic or honey bee venom PLA2.

| SMILES | Innate immune activation via TLR4 (TLR4) | Serum levels of CCL2 (CCL2; TLR2−/− mice, lipid 430 2.5 μg i.v. in PBS) | Serum levels of CCL2 (CCL2; WT mice, lipid 430 2.5 μg i.v. in PBS) | HEK cell activation versus DMSO vehicle (stimulated/nonstimulated ratio) (human TLR2) | Activation of human TLR2 in HEK cells (human TLR2; 24 hours) | Effect of pretreatment with anti-human TLR2 antibody on HEK-TLR2 cell activation (human TLR2; 24 hours) | Activation of TLR4-expressing HEK293 cells (human TLR4) | Potency in engaging TLR2 relative to the Lipid 654 preparation (TLR2) | TLR2 agonism (TLR2; Lipid 430 released with PLA2 treatment of Lipid 654) | Serum levels of CCL2 (CCL2; TLR2−/− mice, lipid 654 1 μg i.p. in 50% DMSO) | Serum levels of CCL2 (CCL2; WT mice, lipid 654 1 μg i.p. in 50% DMSO) | Effect of anti-TLR2 and anti-TLR6 antibodies on NF-κB activation (human TLR2; Example 17, 24 hours) | NF-κB activation (SEAP) (human TLR2; Example 17, 24 hours, no antibodies) | Activation of TLR4-expressing cell line (human TLR4; Example 17, LPS derived from P. gingivalis, two preparations of Lipid 654) | Hydrolysis to Lipid 430 by other common lipase enzymes (phospholipase A2 (PLA2); BLE, PLC, LL, PLD, CVF, 3 days) | Hydrolysis by phospholipase A2 enzymes (phospholipase A2 (PLA2); porcine pancreas PLA2 96 U/ml or honey bee venom PLA2 120 U/ml, 3 days) | Portion not hydrolyzed by PLA2 (phospholipase A2 (PLA2); repeated treatment with PLA2) | Course of EAE compared to vehicle control (female SJL mice with EAE) |
| --- | --- | --- | --- | --- | --- | --- | --- | --- | --- | --- | --- | --- | --- | --- | --- | --- | --- | --- |
| CC(C)CCCCCCCCCCCC(=O)O[C@H](CCCCCCCCCCCC(C)C)CC(=O)NCC(=O)NC(CO)C(=O)O (stereo partly shown) [Flavolipin] | acting as an agonist for TLR4 |  |  |  |  |  |  |  |  |  |  |  |  |  |  |  |  |  |
| CC(C)CCCCCCCCCCCC(O)CC(=O)NCC(=O)N[C@@H](CO)C(=O)O (stereo partly shown) [Lipid 430] |  | failed to do so | induced a significant increase in serum levels of CCL2 | promoted significant HEK cell activation over the control cells; also recorded: significantly elevated over the DMSO vehicle | activates HEK cells through TLR2; also recorded: show the capacity to activate human TLR2 in HEK cells | significantly inhibited by pretreatment with anti-human TLR2 antibody | showed no capacity to activate the TLR4-expressing cell line | at least ten fold more potent | strong TLR2 agonist |  |  |  |  |  |  |  |  |  |
| CC(C)CCCCCCCCCCCC(=O)OC(CCCCCCCCCCCC(C)C)CC(=O)NCC(=O)N[C@@H](CO)C(=O)O (stereo partly shown) [Lipid 654] |  |  |  | promoted significant HEK cell activation over the control cells; also recorded: significantly elevated over the DMSO vehicle | show the capacity to activate human TLR2 in HEK cells | significantly inhibited by pretreatment with anti-human TLR2 antibody | showed no capacity to activate the TLR4-expressing cell line |  |  | failed to do so | induced a significant increase in serum levels of CCL2 | inhibited by anti-TLR2 and anti-TLR6 antibodies | demonstrated NF-κB-activation | showed no ability to activate the TLR4-expressing cell line | no other common lipase enzymes | is hydrolyzed by phospholipase A2 (PLA2) enzymes | Approximately half | significantly inhibited the course of EAE |
